Laboratory results taken from the supplement of paper PMC10307832.

How the values were obtained:
Experiment in all cases: relative viability (nuclei count vs DMSO), 5 days (fraction); higher = more cells survive
[1] = tested on: UMC-11
In short: (§1)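 The day after seeding in 1536-well plates, lung cancer cell lines were treated by pin tool with a single drug, or with a fixed anchor-drug dose together with five library-drug doses (not always all listed) in √10 steps. After 5 days, a combined fix-and-stain solution (final 0.05% Triton X-100, 1% formaldehyde, 1 ug/ml Hoechst) was added. Nuclei counted on 4× images gave relative viability as treated counts over vehicle counts, reported as the median of duplicate plates.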

[2] = tested on: NCI-H23
In short: as §1

[3] = tested on: NCI-H322M
In short: as §1

[4] = tested on: LCLC-97TM1
In short: as §1

[5] = tested on: NCI-H1355
In short: as §1

[6] = tested on: NCI-H1993
In short: as §1

[7] = tested on: NCI-H596
In short: as §1

[8] = tested on: NCI-H1623
In short: as §1

CC(=O)O[C@@]12CO[C@@H]1C[C@H](O)[C@@]1(C)C(=O)[C@H](O)C3=C(C)[C@@H](OC(=O)[C@H](O)[C@@H](NC(=O)OC(C)(C)C)c4ccccc4)C[C@@](O)([C@@H](OC(=O)c4ccccc4)[C@H]21)C3(C)C [Docetaxel] + CCNC(=O)c1noc(-c2cc(C(C)C)c(O)cc2O)c1-c1ccc(CN2CCOCC2)cc1 [Luminespib] (partner 0.01 µM)
relative viability ([1]; first compound 0.0002 µM): 1.02 | relative viability ([1]; first compound 0.000632 µM): 0.917 | relative viability ([1]; first compound 0.002 µM): 0.406 | relative viability ([1]; first compound 0.006325 µM): 0.271 | relative viability ([1]; first compound 0.02 µM): 0.183 | relative viability ([2]; first compound 0.0002 µM): 0.208 | relative viability ([2]; first compound 0.000632 µM): 0.224 | relative viability ([2]; first compound 0.002 µM): 0.233 | relative viability ([2]; first compound 0.006325 µM): 0.224 | relative viability ([2]; first compound 0.02 µM): 0.18 | relative viability ([3]; first compound 0.0002 µM): 0.836 | relative viability ([3]; first compound 0.000632 µM): 0.891 | relative viability ([3]; first compound 0.002 µM): 0.788 | relative viability ([3]; first compound 0.006325 µM): 0.557 | relative viability ([3]; first compound 0.02 µM): 0.347 | relative viability ([4]; first compound 0.0002 µM): 0.71 | relative viability ([4]; first compound 0.000632 µM): 0.622 | relative viability ([4]; first compound 0.002 µM): 0.548 | relative viability ([4]; first compound 0.006325 µM): 0.167 | relative viability ([4]; first compound 0.02 µM): 0.106 | relative viability ([5]; first compound 0.0002 µM): 0.784 | relative viability ([5]; first compound 0.000632 µM): 0.66 | relative viability ([5]; first compound 0.002 µM): 0.599 | relative viability ([5]; first compound 0.006325 µM): 0.255 | relative viability ([5]; first compound 0.02 µM): 0.194 | relative viability ([6]; first compound 0.0002 µM): 0.771 | relative viability ([6]; first compound 0.000632 µM): 0.783 | relative viability ([6]; first compound 0.002 µM): 0.616 | relative viability ([6]; first compound 0.006325 µM): 0.481 | relative viability ([6]; first compound 0.02 µM): 0.446 | relative viability ([7]; first compound 0.0002 µM): 0.872 | relative viability ([7]; first compound 0.000632 µM): 0.58 | relative viability ([7]; first compound 0.002 µM): 0.713 | relative viability ([7]; first compound 0.006325 µM): 0.36 | relative viability ([7]; first compound 0.02 µM): 0.267 | relative viability ([8]; first compound 0.0002 µM): 0.543 | relative viability ([8]; first compound 0.000632 µM): 0.405 | relative viability ([8]; first compound 0.002 µM): 0.455 | relative viability ([8]; first compound 0.006325 µM): 0.353 | relative viability ([8]; first compound 0.02 µM): 0.281

Nc1ccn([C@@H]2O[C@H](CO)[C@@H](O)[C@@H]2O)c(=O)n1 [Cytarabine] + CCNC(=O)c1noc(-c2cc(C(C)C)c(O)cc2O)c1-c1ccc(CN2CCOCC2)cc1 [Luminespib] (partner 0.01 µM)
relative viability ([1]; first compound 0.005 µM): 0.792 | relative viability ([1]; first compound 0.01581 µM): 0.591 | relative viability ([1]; first compound 0.05 µM): 0.495 | relative viability ([1]; first compound 0.1581 µM): 0.357 | relative viability ([1]; first compound 0.5 µM): 0.225 | relative viability ([2]; first compound 0.005 µM): 0.179 | relative viability ([2]; first compound 0.01581 µM): 0.192 | relative viability ([2]; first compound 0.05 µM): 0.197 | relative viability ([2]; first compound 0.1581 µM): 0.199 | relative viability ([2]; first compound 0.5 µM): 0.188 | relative viability ([3]; first compound 0.005 µM): 0.812 | relative viability ([3]; first compound 0.01581 µM): 0.685 | relative viability ([3]; first compound 0.05 µM): 0.514 | relative viability ([3]; first compound 0.1581 µM): 0.387 | relative viability ([3]; first compound 0.5 µM): 0.351 | relative viability ([4]; first compound 0.005 µM): 0.742 | relative viability ([4]; first compound 0.01581 µM): 0.69 | relative viability ([4]; first compound 0.05 µM): 0.709 | relative viability ([4]; first compound 0.1581 µM): 0.318 | relative viability ([4]; first compound 0.5 µM): 0.344 | relative viability ([5]; first compound 0.005 µM): 0.612 | relative viability ([5]; first compound 0.01581 µM): 0.734 | relative viability ([5]; first compound 0.05 µM): 0.623 | relative viability ([5]; first compound 0.1581 µM): 0.344 | relative viability ([5]; first compound 0.5 µM): 0.402 | relative viability ([6]; first compound 0.005 µM): 0.964 | relative viability ([6]; first compound 0.01581 µM): 0.706 | relative viability ([6]; first compound 0.05 µM): 0.695 | relative viability ([6]; first compound 0.1581 µM): 0.512 | relative viability ([6]; first compound 0.5 µM): 0.525 | relative viability ([7]; first compound 0.005 µM): 0.933 | relative viability ([7]; first compound 0.01581 µM): 0.841 | relative viability ([7]; first compound 0.05 µM): 0.685 | relative viability ([7]; first compound 0.1581 µM): 0.548 | relative viability ([7]; first compound 0.5 µM): 0.388 | relative viability ([8]; first compound 0.005 µM): 0.321 | relative viability ([8]; first compound 0.01581 µM): 0.361 | relative viability ([8]; first compound 0.05 µM): 0.316 | relative viability ([8]; first compound 0.1581 µM): 0.232 | relative viability ([8]; first compound 0.5 µM): 0.234
